Results as given in PubChem BioAssay (NCI).
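The compound was tested at five concentrations on cells cultured in 96-well plates, with a 48-hour exposure period. Definition used: TGI = concentration required for complete inhibition of growth.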

How the values were obtained:
Test in all cases: NCI anticancer screen, dose series, 48 h
K-562 leukemia = tested on: K-562 leukemia
NCI-H23 lung = tested on: NCI-H23 lung
OVCAR-4 ovarian = tested on: OVCAR-4 ovarian
HT29 colon = tested on: HT29 colon
SN12C renal = tested on: SN12C renal
MCF7 breast = tested on: MCF7 breast
TK-10 renal = tested on: TK-10 renal
SW-620 colon = tested on: SW-620 colon
PC-3 prostate = tested on: PC-3 prostate
HOP-62 NSCLC = tested on: HOP-62 NSCLC
OVCAR-3 ovarian = tested on: OVCAR-3 ovarian
MALME-3M melanoma = tested on: MALME-3M melanoma
COLO 205 colon = tested on: COLO 205 colon
SF-295 CNS = tested on: SF-295 CNS
MDA-N = tested on: MDA-N
T-47D breast = tested on: T-47D breast
HCT-116 colon = tested on: HCT-116 colon
NCI-H226 lung = tested on: NCI-H226 lung
HCT-15 colon = tested on: HCT-15 colon
A549 NSCLC = tested on: A549 NSCLC
NCI-H522 lung = tested on: NCI-H522 lung
KM12 colon = tested on: KM12 colon
SK-MEL-28 melanoma = tested on: SK-MEL-28 melanoma
DU-145 prostate = tested on: DU-145 prostate
BT-549 breast = tested on: BT-549 breast
MOLT-4 leukemia = tested on: MOLT-4 leukemia
SNB-75 CNS = tested on: SNB-75 CNS
HOP-92 NSCLC = tested on: HOP-92 NSCLC
HL-60(TB) leukemia = tested on: HL-60(TB) leukemia
UACC-62 melanoma = tested on: UACC-62 melanoma
SF-539 CNS = tested on: SF-539 CNS
UO-31 renal = tested on: UO-31 renal
SNB-19 CNS = tested on: SNB-19 CNS
786-0 renal = tested on: 786-0 renal
NCI/ADR-RES ovarian = tested on: NCI/ADR-RES ovarian
EKVX NSCLC = tested on: EKVX NSCLC
SR leukemia = tested on: SR leukemia
HCC-2998 colon = tested on: HCC-2998 colon
M14 melanoma = tested on: M14 melanoma
RPMI-8226 leukemia = tested on: RPMI-8226 leukemia
IGROV1 ovarian = tested on: IGROV1 ovarian
NCI-H460 lung = tested on: NCI-H460 lung
LOX IMVI melanoma = tested on: LOX IMVI melanoma
CAKI-1 renal = tested on: CAKI-1 renal
MDA-MB-231 breast = tested on: MDA-MB-231 breast
MDA-MB-435 = tested on: MDA-MB-435
UACC-257 melanoma = tested on: UACC-257 melanoma
OVCAR-8 ovarian = tested on: OVCAR-8 ovarian
U251 CNS = tested on: U251 CNS
CCRF-CEM leukemia = tested on: CCRF-CEM leukemia
ACHN renal = tested on: ACHN renal
SK-MEL-2 melanoma = tested on: SK-MEL-2 melanoma
SK-MEL-5 melanoma = tested on: SK-MEL-5 melanoma
A498 renal = tested on: A498 renal
RXF 393 renal = tested on: RXF 393 renal
SF-268 CNS = tested on: SF-268 CNS
OVCAR-5 ovarian = tested on: OVCAR-5 ovarian
SK-OV-3 ovarian = tested on: SK-OV-3 ovarian
HS 578T breast = tested on: HS 578T breast

## O=C1CCN2c3ccccc3[C@H]3Cc4cccc(c4[C@@H]2C3)CCO1
K-562 leukemia
  TGI: 80.7 µM
NCI-H23 lung
  TGI: > 100 µM
OVCAR-4 ovarian
  TGI: > 100 µM
HT29 colon
  TGI: > 100 µM
SN12C renal
  TGI: 37.4 µM
MCF7 breast
  TGI: > 100 µM
TK-10 renal
  TGI: > 100 µM
SW-620 colon
  TGI: > 100 µM
PC-3 prostate
  TGI: > 100 µM
HOP-62 NSCLC
  TGI: > 100 µM
OVCAR-3 ovarian
  TGI: 86 µM
MALME-3M melanoma
  TGI: > 100 µM
COLO 205 colon
  TGI: > 100 µM
SF-295 CNS
  TGI: > 100 µM
MDA-N
  TGI: 80.3 µM
T-47D breast
  TGI: > 100 µM
HCT-116 colon
  TGI: > 100 µM
NCI-H226 lung
  TGI: > 100 µM
HCT-15 colon
  TGI: > 100 µM
A549 NSCLC
  TGI: > 100 µM
NCI-H522 lung
  TGI: > 100 µM
KM12 colon
  TGI: > 100 µM
SK-MEL-28 melanoma
  TGI: > 100 µM
DU-145 prostate
  TGI: > 100 µM
BT-549 breast
  TGI: > 100 µM
MOLT-4 leukemia
  TGI: 54.5 µM
SNB-75 CNS
  TGI: 96.7 µM
HOP-92 NSCLC
  TGI: > 100 µM
HL-60(TB) leukemia
  TGI: 48.8 µM
UACC-62 melanoma
  TGI: > 100 µM
SF-539 CNS
  TGI: > 100 µM
UO-31 renal
  TGI: 76.4 µM
SNB-19 CNS
  TGI: > 100 µM
786-0 renal
  TGI: > 100 µM
NCI/ADR-RES ovarian
  TGI: > 100 µM
EKVX NSCLC
  TGI: > 100 µM
SR leukemia
  TGI: 74.6 µM
HCC-2998 colon
  TGI: > 100 µM
M14 melanoma
  TGI: 49.1 µM
RPMI-8226 leukemia
  TGI: > 100 µM
IGROV1 ovarian
  TGI: 84.9 µM
NCI-H460 lung
  TGI: > 100 µM
LOX IMVI melanoma
  TGI: > 100 µM
CAKI-1 renal
  TGI: > 100 µM
MDA-MB-231 breast
  TGI: > 100 µM
MDA-MB-435
  TGI: > 100 µM
UACC-257 melanoma
  TGI: > 100 µM
OVCAR-8 ovarian
  TGI: > 100 µM
U251 CNS
  TGI: > 100 µM
CCRF-CEM leukemia
  TGI: > 100 µM
ACHN renal
  TGI: > 100 µM
SK-MEL-2 melanoma
  TGI: > 100 µM
SK-MEL-5 melanoma
  TGI: 54.3 µM
A498 renal
  TGI: > 100 µM
RXF 393 renal
  TGI: > 100 µM
SF-268 CNS
  TGI: > 100 µM
OVCAR-5 ovarian
  TGI: > 100 µM
SK-OV-3 ovarian
  TGI: > 100 µM

## C=C1CC(C)(COc2ccc3c(C)c(Cl)c(=O)oc3c2)OC1=O (centres undefined)
K-562 leukemia
  TGI: 5.98 µM
NCI-H23 lung
  TGI: 4.2 µM
OVCAR-4 ovarian
  TGI: 10.4 µM
HT29 colon
  TGI: 3.48 µM
SN12C renal
  TGI: 18.9 µM
MCF7 breast
  TGI: 3.15 µM
TK-10 renal
  TGI: 3.06 µM
SW-620 colon
  TGI: 3.15 µM
PC-3 prostate
  TGI: 12 µM
HOP-62 NSCLC
  TGI: 34.5 µM
OVCAR-3 ovarian
  TGI: 16.9 µM
MALME-3M melanoma
  TGI: 7.63 µM
COLO 205 colon
  TGI: 2.43 µM
SF-295 CNS
  TGI: 21.4 µM
MDA-N
  TGI: 5.45 µM
HCT-116 colon
  TGI: 1.57 µM
NCI-H226 lung
  TGI: 17.8 µM
HCT-15 colon
  TGI: 5.86 µM
A549 NSCLC
  TGI: 25.5 µM
NCI-H522 lung
  TGI: 2.1 µM
KM12 colon
  TGI: 14.5 µM
SK-MEL-28 melanoma
  TGI: 7.59 µM
DU-145 prostate
  TGI: 6.8 µM
BT-549 breast
  TGI: 2.81 µM
MOLT-4 leukemia
  TGI: 3.24 µM
SNB-75 CNS
  TGI: 7.95 µM
HOP-92 NSCLC
  TGI: 4.41 µM
HL-60(TB) leukemia
  TGI: 1.21 µM
UACC-62 melanoma
  TGI: 3.01 µM
SF-539 CNS
  TGI: 15.6 µM
UO-31 renal
  TGI: 9.63 µM
SNB-19 CNS
  TGI: 26.7 µM
786-0 renal
  TGI: 4.65 µM
NCI/ADR-RES ovarian
  TGI: 14.2 µM
EKVX NSCLC
  TGI: 20.8 µM
SR leukemia
  TGI: 6.47 µM
HCC-2998 colon
  TGI: 4.27 µM
M14 melanoma
  TGI: 3.65 µM
RPMI-8226 leukemia
  TGI: 1.83 µM
IGROV1 ovarian
  TGI: 3.94 µM
NCI-H460 lung
  TGI: 21.2 µM
LOX IMVI melanoma
  TGI: 2.91 µM
CAKI-1 renal
  TGI: 6.58 µM
MDA-MB-231 breast
  TGI: 12.6 µM
MDA-MB-435
  TGI: 11.7 µM
UACC-257 melanoma
  TGI: 3.48 µM
OVCAR-8 ovarian
  TGI: 17.3 µM
HS 578T breast
  TGI: > 100 µM
U251 CNS
  TGI: 21 µM
CCRF-CEM leukemia
  TGI: 2.54 µM
ACHN renal
  TGI: 11.4 µM
SK-MEL-2 melanoma
  TGI: 4.47 µM
SK-MEL-5 melanoma
  TGI: 4.2 µM
SF-268 CNS
  TGI: 19.2 µM
OVCAR-5 ovarian
  TGI: 13.4 µM
SK-OV-3 ovarian
  TGI: 17.6 µM
